Values joined by “and” are separate entries in the source; they are usually repeats but may differ in a detail not shown here. Equal entries are not always repeated. Where two headings read alike, the source gives them in different places. Blank lines part the entries; values can stand above or below the molecule they belong to.
Assays:
Phosphodiesterase I = test system: Phosphodiesterase I
From the text: (§1) The profile of activity against a selection of phosphodiesterases (I-VI) was investigated. The methods used for the evaluation of the biological activity are all well known in the art. See for example, Weishaar et al; Biochem. Pharmacol., 35:787-800.

Phosphodiesterase IV (h) = Phosphodiesterase IV (h) inhibition; type: biochemical, human; settings: 10 μM; percent inhibition of control activity, mean values, n = 2
Phosphodiesterase V (h) = Phosphodiesterase V (h) (Homo sapiens, UniProt O76074); assay: Phosphodiesterase V (h) inhibition; type: biochemical
From the text: as §1

[1] = biological target: Phosphodiesterase III (h) (Homo sapiens, UniProt Q14432); assay: Phosphodiesterase III (h) inhibition; type: biochemical
Phosphodiesterase II (h) = Phosphodiesterase II (h) (Homo sapiens, UniProt O00408); assay: Phosphodiesterase II (h) inhibition; type: biochemical
Phosphodiesterase VI = biological target: T1, Phosphodiesterase VI (Bos taurus, UniProt P11541+P23439); assay: Phosphodiesterase VI inhibition; type: biochemical
T1 sequence (P11541 2-856): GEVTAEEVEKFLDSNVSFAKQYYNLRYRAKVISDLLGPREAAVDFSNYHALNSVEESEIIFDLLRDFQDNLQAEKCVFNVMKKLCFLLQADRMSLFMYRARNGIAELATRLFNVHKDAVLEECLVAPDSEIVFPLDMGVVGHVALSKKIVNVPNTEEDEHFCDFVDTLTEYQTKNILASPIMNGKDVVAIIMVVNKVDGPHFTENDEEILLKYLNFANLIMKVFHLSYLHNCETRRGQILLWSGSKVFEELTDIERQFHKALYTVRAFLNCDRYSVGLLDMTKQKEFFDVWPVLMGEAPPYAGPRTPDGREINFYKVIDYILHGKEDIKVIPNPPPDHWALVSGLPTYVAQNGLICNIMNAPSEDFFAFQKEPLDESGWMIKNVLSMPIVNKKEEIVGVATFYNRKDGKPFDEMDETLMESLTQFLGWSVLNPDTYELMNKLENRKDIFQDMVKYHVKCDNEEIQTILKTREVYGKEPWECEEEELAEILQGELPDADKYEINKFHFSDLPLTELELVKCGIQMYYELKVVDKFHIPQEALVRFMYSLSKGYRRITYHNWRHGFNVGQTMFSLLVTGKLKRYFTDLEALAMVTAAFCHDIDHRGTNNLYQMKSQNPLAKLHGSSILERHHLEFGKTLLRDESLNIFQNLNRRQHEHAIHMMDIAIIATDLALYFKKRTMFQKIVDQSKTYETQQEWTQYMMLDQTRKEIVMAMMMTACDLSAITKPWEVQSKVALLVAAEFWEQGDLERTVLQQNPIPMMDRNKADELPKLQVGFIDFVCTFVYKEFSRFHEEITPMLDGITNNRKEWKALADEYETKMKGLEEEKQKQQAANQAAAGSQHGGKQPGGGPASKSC
T1 sequence (P23439 2-850): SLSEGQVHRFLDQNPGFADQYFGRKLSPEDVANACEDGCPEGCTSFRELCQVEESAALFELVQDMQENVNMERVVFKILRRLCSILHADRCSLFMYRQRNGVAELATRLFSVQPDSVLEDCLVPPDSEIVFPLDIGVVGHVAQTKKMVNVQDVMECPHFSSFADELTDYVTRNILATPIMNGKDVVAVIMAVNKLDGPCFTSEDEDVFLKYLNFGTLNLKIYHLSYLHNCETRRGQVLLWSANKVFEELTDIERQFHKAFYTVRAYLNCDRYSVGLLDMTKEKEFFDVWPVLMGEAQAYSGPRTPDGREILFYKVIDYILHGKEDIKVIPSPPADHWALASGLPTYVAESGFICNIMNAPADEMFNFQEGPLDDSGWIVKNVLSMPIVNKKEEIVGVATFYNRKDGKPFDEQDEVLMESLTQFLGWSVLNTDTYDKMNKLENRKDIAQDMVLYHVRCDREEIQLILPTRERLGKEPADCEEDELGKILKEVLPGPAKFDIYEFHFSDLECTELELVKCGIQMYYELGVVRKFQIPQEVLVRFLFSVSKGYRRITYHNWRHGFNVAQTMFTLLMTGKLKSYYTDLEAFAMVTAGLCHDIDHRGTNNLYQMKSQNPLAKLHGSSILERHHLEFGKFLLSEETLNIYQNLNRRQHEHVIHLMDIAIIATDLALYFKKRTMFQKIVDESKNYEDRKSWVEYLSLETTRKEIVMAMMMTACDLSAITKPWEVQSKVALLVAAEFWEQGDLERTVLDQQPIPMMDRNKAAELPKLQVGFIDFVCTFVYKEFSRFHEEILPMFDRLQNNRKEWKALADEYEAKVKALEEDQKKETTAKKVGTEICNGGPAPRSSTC
T1 sequence (P04972 1-87 partner): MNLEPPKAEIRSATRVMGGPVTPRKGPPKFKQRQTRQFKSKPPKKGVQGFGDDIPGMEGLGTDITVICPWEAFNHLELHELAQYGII
Method: The IC50 value against PDEVI was determined.

[2] = Hill coefficient of the test compound
[3] = Hill coefficient of the reference compound

Sequence of Phosphodiesterase III (h) (Q14432 whole entry): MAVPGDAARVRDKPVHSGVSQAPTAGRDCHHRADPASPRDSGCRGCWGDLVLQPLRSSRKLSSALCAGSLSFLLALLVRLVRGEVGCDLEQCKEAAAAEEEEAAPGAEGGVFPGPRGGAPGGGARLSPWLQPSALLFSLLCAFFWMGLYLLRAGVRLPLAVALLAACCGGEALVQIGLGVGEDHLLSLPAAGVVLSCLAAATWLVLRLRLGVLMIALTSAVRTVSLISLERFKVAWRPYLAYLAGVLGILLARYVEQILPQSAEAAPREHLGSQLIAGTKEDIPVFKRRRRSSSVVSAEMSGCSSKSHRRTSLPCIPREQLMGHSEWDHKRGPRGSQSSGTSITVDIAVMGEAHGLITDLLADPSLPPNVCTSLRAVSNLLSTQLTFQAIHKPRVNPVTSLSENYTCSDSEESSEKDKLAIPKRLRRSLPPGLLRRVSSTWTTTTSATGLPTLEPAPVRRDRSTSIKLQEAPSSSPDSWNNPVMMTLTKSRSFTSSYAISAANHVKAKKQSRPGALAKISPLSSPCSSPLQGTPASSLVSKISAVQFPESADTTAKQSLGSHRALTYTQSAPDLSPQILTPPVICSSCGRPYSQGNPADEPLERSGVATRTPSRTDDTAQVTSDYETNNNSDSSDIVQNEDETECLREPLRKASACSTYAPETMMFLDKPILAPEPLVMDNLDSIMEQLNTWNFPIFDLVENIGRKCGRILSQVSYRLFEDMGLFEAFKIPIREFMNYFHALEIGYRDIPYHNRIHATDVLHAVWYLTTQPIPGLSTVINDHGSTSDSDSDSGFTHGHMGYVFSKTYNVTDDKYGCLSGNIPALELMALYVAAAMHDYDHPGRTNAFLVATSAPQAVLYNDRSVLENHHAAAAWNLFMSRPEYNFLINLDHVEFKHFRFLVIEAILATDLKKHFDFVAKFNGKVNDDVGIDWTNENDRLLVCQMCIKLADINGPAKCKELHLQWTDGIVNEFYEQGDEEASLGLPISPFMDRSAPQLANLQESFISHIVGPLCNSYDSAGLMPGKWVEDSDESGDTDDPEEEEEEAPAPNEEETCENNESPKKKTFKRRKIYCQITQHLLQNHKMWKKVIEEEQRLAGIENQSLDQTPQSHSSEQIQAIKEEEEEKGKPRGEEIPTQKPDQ
Sequence of Phosphodiesterase II (h) (O00408 whole entry): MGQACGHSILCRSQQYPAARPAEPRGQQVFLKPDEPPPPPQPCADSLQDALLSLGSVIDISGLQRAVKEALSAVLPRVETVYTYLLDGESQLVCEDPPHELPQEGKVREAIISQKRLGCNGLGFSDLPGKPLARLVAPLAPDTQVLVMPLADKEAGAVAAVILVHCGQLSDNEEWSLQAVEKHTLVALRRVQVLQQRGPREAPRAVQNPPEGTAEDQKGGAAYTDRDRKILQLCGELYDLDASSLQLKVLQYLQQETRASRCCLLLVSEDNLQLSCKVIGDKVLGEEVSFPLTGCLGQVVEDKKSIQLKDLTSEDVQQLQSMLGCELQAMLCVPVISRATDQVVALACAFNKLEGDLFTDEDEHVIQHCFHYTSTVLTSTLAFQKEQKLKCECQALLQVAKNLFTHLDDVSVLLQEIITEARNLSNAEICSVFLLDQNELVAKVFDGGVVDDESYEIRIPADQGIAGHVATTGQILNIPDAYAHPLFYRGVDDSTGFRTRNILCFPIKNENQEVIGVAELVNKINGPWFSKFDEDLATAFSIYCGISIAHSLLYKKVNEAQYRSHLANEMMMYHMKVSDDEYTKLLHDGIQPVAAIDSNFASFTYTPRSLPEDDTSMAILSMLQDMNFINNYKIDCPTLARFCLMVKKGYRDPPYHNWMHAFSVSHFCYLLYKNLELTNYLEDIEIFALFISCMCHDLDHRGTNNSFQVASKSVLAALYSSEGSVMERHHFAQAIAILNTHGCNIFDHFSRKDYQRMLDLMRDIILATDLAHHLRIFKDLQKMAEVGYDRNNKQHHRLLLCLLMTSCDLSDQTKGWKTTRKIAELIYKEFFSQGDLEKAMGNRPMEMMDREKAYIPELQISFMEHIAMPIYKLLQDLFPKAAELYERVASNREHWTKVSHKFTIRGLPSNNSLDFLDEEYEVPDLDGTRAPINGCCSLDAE

SMILES: O=CC(=O)NC1=Nc2ccc(Cl)c(Cl)c2CN1 [Compound#1, N-(5,6-dichloro-3,4-dihydroquinazolin-2-yl)-2-oxoacetamide]
% inhibition (Phosphodiesterase I; 10 μM, percent inhibition of control activity, mean values, n = 2): 26% | % inhibition (Phosphodiesterase IV (h)): — (The symbol - indicates an inhibition of less than 10%.) | inhibition at 10 µM (Phosphodiesterase V (h)): 64% | inhibition at 10 µM [1]: 97% | IC50 ([1]; average of two separate occasions, read-out: IC50 (average)): 0.9 nM | IC50 ([1]; test compound, assay 1 and assay 2 (two separate occasions), read-out: IC50): 0.69 nM and 1.1 nM | inhibition at 10 µM (Phosphodiesterase II (h)): < 10% | inhibition at 10 µM (Phosphodiesterase VI): 89% | (nH) (Phosphodiesterase VI; [2]): (1.0)

melting point: 170 °C (dec.)
SMILES: O=C1NC2=Nc3ccc(Cl)c(Cl)c3CN2C1O (stereo not shown) [Compound #3, 6,7-dichloro-3-hydroxy-1,5-dihydro-imidazo[2,1-b]quinazolin-2-one]

Reference compounds (nH) [1, 3]: 0.6
SMILES: Cc1[nH]c(=O)c(C#N)cc1-c1ccncc1 [milrinone, reference compound]

Reference compounds (nH) (Phosphodiesterase V (h); [3]): (1.3)
SMILES: OCCN(CCO)c1nc(N2CCCCC2)c2nc(N(CCO)CCO)nc(N3CCCCC3)c2n1 [dipyridamole, reference compound]

(nH) [1, 2]: 0.4
SMILES: O=C1NC2=NCc3c(ccc(Cl)c3Cl)N2C1O (stereo not shown) [Compound#5, (6,7-Dichloro-1-hydroxy-3,5-dihydro-imidazo[1,2-a]quinazolin-2-one)]

SMILES: COCc1nc2c([nH]1)c(=O)n(C)c(=O)n2CC(C)C [8-methoxy-IBMX, reference compound]
IC50 (Phosphodiesterase I; read-out: Reference compounds IC50, control value for the reference compound): 2410 nM

Reference compounds (nH) (Phosphodiesterase II (h); [3]): (0.7) | IC50 (Phosphodiesterase II (h); control value for the reference compound, read-out: Reference compounds IC50): 2600 nM
SMILES: CCCCCC[C@@H]([C@@H](C)O)n1cnc2c(N)ncnc21 (racemic) [EHNA]
